Reference: ChEMBL document CHEMBL4732038 (RSC Med Chem, 2021)
Converted amounts (≈) assume the structure as drawn.

Legend:
[1] = system: Mycobacterium tuberculosis; assay: Antitubercular activity against Mycobacterium tuberculosis H37Rv assessed as bacterial growth inhibition at 10 uM incubated for 5 days by resazurin microtiter assay relative to control; assay type: functional; conditions: 120 h, time 5 day
[2] = system: Mycobacterium tuberculosis; assay: Antitubercular activity against Mycobacterium tuberculosis H37Rv assessed as bacterial growth inhibition at 1 uM incubated for 5 days by resazurin microtiter assay relative to control; assay type: functional; conditions: 120 h, time 5 day
[3] = system: Mycobacterium tuberculosis; assay: Antitubercular activity against Mycobacterium tuberculosis H37Rv assessed as bacterial growth inhibition incubated for 5 days by resazurin microtiter assay; assay type: functional; conditions: 120 h, time 5 day
[4] = target: Voltage-gated inwardly rectifying potassium channel KCNH2 (Homo sapiens, UniProt Q12809); assay: Inhibition of fluorescently labelled tracer binding to human ERG by competitive binding assay
Sequence of Voltage-gated inwardly rectifying potassium channel KCNH2 (Q12809 whole entry): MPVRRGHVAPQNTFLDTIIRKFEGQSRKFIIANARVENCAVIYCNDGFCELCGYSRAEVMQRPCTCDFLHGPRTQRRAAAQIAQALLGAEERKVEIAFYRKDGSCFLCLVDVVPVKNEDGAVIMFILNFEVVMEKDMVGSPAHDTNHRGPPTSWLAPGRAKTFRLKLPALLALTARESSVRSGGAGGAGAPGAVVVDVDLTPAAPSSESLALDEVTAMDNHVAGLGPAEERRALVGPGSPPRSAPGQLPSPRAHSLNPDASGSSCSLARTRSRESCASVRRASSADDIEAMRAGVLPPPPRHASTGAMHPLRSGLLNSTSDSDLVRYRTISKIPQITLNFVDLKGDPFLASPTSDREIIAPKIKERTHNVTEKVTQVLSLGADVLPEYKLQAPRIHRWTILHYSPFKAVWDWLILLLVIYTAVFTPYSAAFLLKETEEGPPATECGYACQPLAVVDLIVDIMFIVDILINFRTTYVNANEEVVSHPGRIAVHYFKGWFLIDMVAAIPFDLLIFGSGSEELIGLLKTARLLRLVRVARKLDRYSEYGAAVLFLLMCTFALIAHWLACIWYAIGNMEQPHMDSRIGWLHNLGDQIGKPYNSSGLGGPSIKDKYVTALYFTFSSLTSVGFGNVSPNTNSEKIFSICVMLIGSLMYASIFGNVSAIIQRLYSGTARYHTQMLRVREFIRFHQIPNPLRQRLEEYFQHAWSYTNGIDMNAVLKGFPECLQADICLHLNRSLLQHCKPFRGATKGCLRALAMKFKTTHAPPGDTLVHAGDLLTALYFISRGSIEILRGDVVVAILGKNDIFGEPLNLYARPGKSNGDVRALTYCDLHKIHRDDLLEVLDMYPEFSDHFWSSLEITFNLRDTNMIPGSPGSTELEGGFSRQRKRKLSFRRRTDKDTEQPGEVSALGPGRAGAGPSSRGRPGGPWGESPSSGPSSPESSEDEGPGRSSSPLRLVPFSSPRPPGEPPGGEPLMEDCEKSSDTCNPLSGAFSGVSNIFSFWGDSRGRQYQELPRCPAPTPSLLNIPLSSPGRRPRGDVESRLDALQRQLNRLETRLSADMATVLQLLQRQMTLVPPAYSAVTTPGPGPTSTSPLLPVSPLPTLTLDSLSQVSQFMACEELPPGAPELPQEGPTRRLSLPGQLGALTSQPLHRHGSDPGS

[5] = system: Mycobacterium tuberculosis; assay: Antitubercular activity against Mycobacterium tuberculosis H37Rv by broth microdilution method; assay type: functional

SMILES | inhibition at 10 µM [1] [%] | inhibition at 1 µM [2] [%] | MIC90 [3] [µM] | EC50 [4] [nM] | MIC90 [5] [µM]
COc1ncc(-c2ccc(Cl)cc2)cc1C(c1ccccc1)C(O)(CCN(C)C)c1cccc2ccccc12 (configuration not stated) | 100 | 5 | 6.94 (≈ 3.73 µg/mL) | – | –
COc1ncc(-c2ccccc2)cc1C(c1ccccc1)C(O)(CCN(C)C)c1cccc2ccccc12 (configuration not stated) | 100 | 10 | 5.51 (≈ 2.77 µg/mL) | – | –
COc1nc(OC)c(C(c2ccccc2)C(O)(CCN(C)C)c2cccc3ccccc23)cc1-c1ccc(F)cc1 (configuration not stated) | – | – | 2.41 (≈ 1.33 µg/mL) | – | –
COc1ncc(-c2ccc(C(F)(F)F)cc2Cl)cc1C(c1ccccc1)C(O)(CCN(C)C)c1cccc2ccccc12 (configuration not stated) | 100 | 5 | – | – | –
COc1nc(OC)c(C(c2ccccc2)C(O)(CCN(C)C)c2cccc3ccccc23)cc1-c1ccc(OC(F)(F)F)cc1 (configuration not stated) | – | – | 2.34 (≈ 1.44 µg/mL) | – | –
COc1ncc(-c2ccc(F)cc2C#N)cc1C(c1ccccc1)C(O)(CCN(C)C)c1cccc2ccccc12 (configuration not stated) | 100 | 0 | – | – | –
COc1ncc(-c2ccc(Cl)cc2Cl)cc1C(c1ccccc1)C(O)(CCN(C)C)c1cccc2ccccc12 (configuration not stated) | 100 | 0 | – | – | –
COc1ncc(-c2ccccc2Cl)cc1C(c1ccccc1)C(O)(CCN(C)C)c1cccc2ccccc12 (configuration not stated) | 100 | 0 | 4.52 (≈ 2.43 µg/mL) | – | –
COc1nc(OC)c([C@@H](c2ccccc2)[C@@](O)(CCN(C)C)c2cccc3ccccc23)cc1-c1ccc(C#N)cc1 | – | – | 1 (≈ 0.558 µg/mL) | 1520 | –
COc1ncc(-c2cccc3ccccc23)cc1C(c1ccccc1)C(O)(CCN(C)C)c1cccc2ccccc12 (configuration not stated) | 100 | 5 | – | – | –
COc1ncc(-c2ccc(F)cc2)cc1C(c1ccccc1)C(O)(CCN(C)C)c1cccc2ccccc12 (configuration not stated) | 100 | 100 | 0.8 (≈ 0.417 µg/mL) | – | –
COc1ncc(-c2ccccc2OC(F)(F)F)cc1C(c1ccccc1)C(O)(CCN(C)C)c1cccc2ccccc12 (configuration not stated) | 100 | 0 | – | – | –
COc1ncc(-c2ccc(F)c(C)c2)cc1C(c1ccccc1)C(O)(CCN(C)C)c1cccc2ccccc12 (configuration not stated) | 100 | 5 | – | – | –
COc1nc(OC)c(C(c2ccccc2)C(O)(CCN(C)C)c2cccc3ccccc23)cc1-c1ccc(Cl)cc1 (configuration not stated) | – | – | 3.44 (≈ 1.95 µg/mL) | – | –
COc1nc(OC)c(C(c2ccccc2)C(O)(CCN(C)C)c2cccc3ccccc23)cc1-c1ccc(C#N)cc1 (configuration not stated) | – | – | 1.24 (≈ 0.692 µg/mL) | – | –
COc1ncc(-c2ccc(C(F)(F)F)cc2)cc1C(c1ccccc1)C(O)(CCN(C)C)c1cccc2ccccc12 (configuration not stated) | 100 | 5 | 4.26 (≈ 2.43 µg/mL) | – | –
COc1ncc(-c2cccc(Cl)c2)cc1C(c1ccccc1)C(O)(CCN(C)C)c1cccc2ccccc12 (configuration not stated) | 100 | 5 | 7.94 (≈ 4.26 µg/mL) | – | –

SMILES | inhibition at 10 µM [1] [%] | inhibition at 1 µM [2] [%] | MIC90 [3] [µM] | EC50 [4] [nM] | MIC90 [5] [µM]
COc1ncc(-c2ccccc2F)cc1C(c1ccccc1)C(O)(CCN(C)C)c1cccc2ccccc12 (configuration not stated) | 100 | 0 | 2.6 (≈ 1.35 µg/mL) | – | –
COc1ncc(-c2ccc(Cl)c(Cl)c2)cc1C(c1ccccc1)C(O)(CCN(C)C)c1cccc2ccccc12 (configuration not stated) | 100 | 0 | – | – | –
COc1nc(OC)c([C@H](c2ccccc2)[C@](O)(CCN(C)C)c2cccc3ccccc23)cc1-c1ccc(C#N)cc1 | – | – | 8 (≈ 4.46 µg/mL) | – | –
COc1ncc(-c2ccc(F)c(Cl)c2)cc1C(c1ccccc1)C(O)(CCN(C)C)c1cccc2ccccc12 (configuration not stated) | 100 | 0 | – | – | –
COc1nc2ccc(Br)cc2cc1[C@@H](c1ccccc1)[C@@](O)(CCN(C)C)c1cccc2ccccc12 [BEDAQUILINE] | – | – | 0.35 (≈ 0.194 µg/mL) | – | 0.027 (≈ 0.015 µg/mL)
COc1ncc(-c2ccc(Cl)c(C(F)(F)F)c2)cc1C(c1ccccc1)C(O)(CCN(C)C)c1cccc2ccccc12 (configuration not stated) | 100 | 0 | – | – | –
COc1ncc(-c2ccccc2C#N)cc1C(c1ccccc1)C(O)(CCN(C)C)c1cccc2ccccc12 (configuration not stated) | 90 | 0 | – | – | –
COc1ncc(-c2ccc(F)cc2F)cc1C(c1ccccc1)C(O)(CCN(C)C)c1cccc2ccccc12 (configuration not stated) | 100 | 0 | – | – | –
COc1nc(OC)c(C(c2ccccc2)C(O)(CCN(C)C)c2cccc3ccccc23)cc1-c1ccccc1 (configuration not stated) | – | – | 3.88 (≈ 2.07 µg/mL) | – | –
COc1ncc(-c2ccc(C)c(Cl)c2)cc1C(c1ccccc1)C(O)(CCN(C)C)c1cccc2ccccc12 (configuration not stated) | 100 | 5 | – | – | –
COc1ncc(-c2cccc(F)c2)cc1C(c1ccccc1)C(O)(CCN(C)C)c1cccc2ccccc12 (configuration not stated) | 100 | 5 | 2.51 (≈ 1.31 µg/mL) | – | –
CO[C@H]1/C=C/O[C@@]2(C)Oc3c(C)c(O)c4c(O)c(c(/C=N/N5CCN(C)CC5)c(O)c4c3C2=O)NC(=O)/C(C)=C\C=C\[C@H](C)[C@H](O)[C@@H](C)[C@@H](O)[C@@H](C)[C@H](OC(C)=O)[C@@H]1C [RIFAMPIN] | – | – | 0.006 (≈ 0.00494 µg/mL) | – | –
COc1ncc(Br)cc1C(c1ccccc1)C(O)(CCN(C)C)c1cccc2ccccc12 (mixture of isomers) | – | – | > 10 | – | –
COc1ccc(-c2cc(C(c3ccccc3)C(O)(CCN(C)C)c3cccc4ccccc34)c(OC)nc2OC)cc1 (configuration not stated) | – | – | 3.94 (≈ 2.22 µg/mL) | – | –
COc1ncc(-c2ccc(C(C)(C)C)cc2)cc1C(c1ccccc1)C(O)(CCN(C)C)c1cccc2ccccc12 (configuration not stated) | 100 | 90 | 3.09 (≈ 1.73 µg/mL) | – | –
COc1ncc(-c2ccc(OC(F)(F)F)cc2)cc1C(c1ccccc1)C(O)(CCN(C)C)c1cccc2ccccc12 (configuration not stated) | 100 | 10 | 6.05 (≈ 3.55 µg/mL) | – | –
